Test results taken from paper PMC7604414, “Favipiravir at high doses has potent antiviral activity in SARS-CoV-2−infected hamsters, whereas hydroxychloroquine lacks activity” (Proceedings of the National Academy of Sciences of the …, 2020).

What was measured:
SARS-CoV-2 [1] = test system: SARS-CoV-2; set-up: method as in PMID 33741945; settings: upon favipiravir treatment; cited from earlier work
SARS-CoV-2 [2] = test system: SARS-CoV-2; set-up: species or system Syrian hamsters; settings: hamster, in vivo

NC(=O)c1nc(F)c[nH]c1=O [favipiravir]
increase of mean number of mutations in the viral RNA, factor (SARS-CoV-2 [1]): more than three | increase in mean virus variants vs untreated hamsters (SARS-CoV-2 [2]): 3.2 fold
